Tests used:
[1] = tested on: MMA Patient fibroblasts (TSI 3739); test: Mitochondrial morphology imaging in MMA patient fibroblasts (TSI 3739); assay type: cell-based; details: image compared with fragmented mitochondria in vehicle control
[2] = tested on: MMA Patient fibroblasts (GM01673); test: Mitochondrial morphology imaging in MMA patient fibroblasts (GM01673); assay type: cell-based; details: image compared with fragmented mitochondria in vehicle control
[3] = tested on: MMA Patient fibroblasts (GM00371); test: Mitochondrial morphology imaging in MMA patient fibroblasts (GM00371); assay type: cell-based; details: image compared with fragmented mitochondria in vehicle control
[4] = tested on: CD14+ monocytes differentiated to M1 macrophages; test: M1 differentiation assay (macrophage cytokine secretion, ELISA); assay type: cell-based, human; details: 10 uM
Method: Monocytes were isolated by positive isolation with CD14+ microbeads (Miltenyi, 130-050-201). Monocytes were 99% viable and were 96% purity as analyzed by FACS and CD14±(BD, 563561). 100,000 monocytes along with compounds at the dose of 10 and 50 μM were allowed to differentiate to macrophages with 10 ng/ml GMCSF (R&D,15-GM-050/CF) in RPMI complete media (Invitrogen, 22400089) with 15% FBS (Hyclone SV30087.03) and 1% Penicillin-Streptomycin (Gibco, 15140-122). On day 2 and 4 half the media was refreshed with fresh GM-CSF and compounds at 10 and 50 μM dose. On day 6 the macrophages were matured with GMCSF, IFN, (R&D 285-IF-100/CF) and LPS (Sigma, L6143) in the presence of 10 μM and 50 μM of compounds. After 24h, supernatant was collected for the measurement of TNFα (DKW, 1117202), IL6 (DKW, 1110602), IL10 (DKW, 1110003) by ELISA. Macrophages were detached gently on ice with EDTA (Invitrogen, 15575-038) and analyzed by FACS (BD LSR Fortessa, 853492). […]

| SMILES | mitochondrial morphology (elongation and networking of mitochondria) [1] | mitochondrial morphology (elongation and networking of mitochondria) [2] | mitochondrial morphology (elongation and networking of mitochondria) [3] | % decrease in Macrophage IL-6 Secretion [4] [%] | % decrease in Macrophage TNFα Secretion [4] [%] |
| --- | --- | --- | --- | --- | --- |
| COC(=O)[C@H](CSC(=O)CCCNC(C)=O)NC(=O)CCNC(=O)[C@H](O)C(C)(C)CO [Compound 216, methyl (2R)-2-[3-[(2R)-2,4-dihydroxy-3,3-dimethylbutanamido]propanamido]-3-[(4-acetamidobutanoyl)sulfanyl]propanoate] | elongation and networking of mitochondria promoted | elongation and networking of mitochondria promoted |  |  |  |
| COC(=O)[C@H](CSC(=O)CCCO)NC(=O)CCNC(=O)[C@H](O)C(C)(C)CO [Compound 697, methyl (2R)-2-[3-[(2R)-2,4-dihydroxy-3,3-dimethylbutanamido]propanamido]-3-[(4-hydroxybutanoyl)sulfanyl]propanoate] | elongation and networking of mitochondria promoted | elongation and networking of mitochondria promoted | elongation and networking of mitochondria promoted |  |  |
| COC(=O)[C@H](CSC(=O)CCCOC(C)=O)NC(=O)CCNC(=O)[C@H](O)C(C)(C)CO [Compound 698, methyl (2R)-3-[[4-(acetyloxy)butanoyl]sulfanyl]-2-[3-[(2R)-2,4-dihydroxy-3,3-dimethylbutanamido]propanamido]propanoate] | elongation and networking of mitochondria promoted | elongation and networking of mitochondria promoted |  |  |  |
| CC(=O)NCCCC(=O)SC[C@H](NC(=O)CCNC(=O)[C@H](O)C(C)(C)CO)C(=O)O [Compound 215, (2R)-2-[3-[(2R)-2,4-dihydroxy-3,3-dimethylbutanamido]propanamido]-3-[(4-acetamidobutanoyl)sulfanyl]propanoic acid] |  |  |  | ≥30 | ≥30 |
| COC(=O)[C@H](CSC(=O)CCCN)NC(=O)CCNC(=O)[C@H](O)C(C)(C)CO [Compound 72, methyl (2R)-3-[(4-aminobutanoyl)sulfanyl]-2-[3-[(2R)-2,4-dihydroxy-3,3-dimethylbutanamido]propanamido]propanoate] |  | elongation and networking of mitochondria promoted |  |  |  |
